Measurements taken from patent US6884774B2, “Cyclic hexapeptide derivatives” (Fujisawa Pharmaceutical Co. Ltd., priority 2000, dated 2005).
Starred links: 1 amine or outer side, 2 acyl side, 3 side chain; linkers in the order of their positions; H or OH if unused. Positions of bridges follow the written chain, without caps; N, C: chain ends. Non-standard residues stand in square brackets, D forms with d. Residues, ends and D or L forms follow the SMILES beside them. *: point of attachment. X2 = C[C@H]1CC[C@@H](N2CCN(c3ccc(-c4nnc(-c5ccc(C(=O)*)cc5)s4)cc3)CC2)CC1; hTyr(3R-OH,3'-OSO3H) = N[C@H](C(=O)O)[C@H](O)Cc1ccc(O)c(OS(=O)(=O)O)c1; X3 = COCCCCCOC1CCN(c2ccc(-c3nn4cc(-c5ccc(C(=O)*)cc5)nc4s3)cc2)CC1; Orn(3R-OH,Nδ-CH(CH2OH)2) = N[C@H](C(=O)O)[C@H](O)CCNC(CO)CO; X4 = COCCCCOc1ccc(-c2nn3cc(-c4ccc(C(=O)*)cc4)nc3s2)cc1; Orn(4R-OH) = O=C([C@H](C[C@@H](O)CN[*:3])N[*:1])[*:2]; X1 = COCCCCCCOc1ccc(-c2cc(-c3ccc(C(=O)*)cc3)no2)cc1; Pro(3S-OH,4S-Me) = C[C@H]1CN[C@H](C(=O)O)[C@H]1O; Hyp = O=C(O)[C@@H]1C[C@@H](O)CN1

System: Candida albicans FP-633
Type: cell-based
Conditions: FP-633, 24 h, pH 7.3
Description: In vitro antimicrobial activity of the object compound of Examples 4, 9, 25 and 30 disclosed later was determined by MICs in mouse serum as described below. The MICs in mouse serum were determined by the microdilution method using ICR mouse serum buffered with 20 mM HEPES buffer (pH 7.3) as a test medium. Inoculum suspension of 10^6 cells/ml were prepared by a hemocytometric procedure and diluted to obtain an inoculum size of approximately 1.0×10^3 cells/ml. Microplates were incubated at 37° C. for 24 hours in 5% CO2. The MICs were defined as the lowest concentrations at which no visible growth was observed.

| MIC | Compound |
| --- | --- |
| <0.3 µg/mL | COCCCCOc1ccc(-c2nn3cc(-c4ccc(C(=O)N[C@H]5C[C@@H](O)CNC(=O)[C@@H]6[C@@H](O)[C@@H](C)CN6C(=O)[C@H]([C@H](O)CCNC(CO)CO)NC(=O)[C@H]([C@H](O)Cc6ccc(O)c(OS(=O)(=O)O)c6)NC(=O)[C@@H]6C[C@@H](O)CN6C(=O)[C@H]([C@@H](C)O)NC5=O)cc4)nc3s2)cc1 [Example 30] (X4-[Orn(4R-OH)]T[Hyp][hTyr(3R-OH,3'-OSO3H)][Orn(3R-OH,Nδ-CH(CH2OH)2)][Pro(3S-OH,4S-Me)]; lactam 1-C) |
| <0.3 µg/mL | C[C@@H](O)[C@@H]1NC(=O)[C@@H](NC(=O)c2ccc(-c3nnc(-c4ccc(N5CCN([C@H]6CC[C@@H](C)CC6)CC5)cc4)s3)cc2)C[C@@H](O)CNC(=O)[C@@H]2[C@@H](O)[C@@H](C)CN2C(=O)[C@H]([C@H](O)CCNC(CO)CO)NC(=O)[C@H]([C@H](O)Cc2ccc(O)c(OS(=O)(=O)O)c2)NC(=O)[C@@H]2C[C@@H](O)CN2C1=O [Example 9] (X2-[Orn(4R-OH)]T[Hyp][hTyr(3R-OH,3'-OSO3H)][Orn(3R-OH,Nδ-CH(CH2OH)2)][Pro(3S-OH,4S-Me)]; lactam 1-C) |
| <0.3 µg/mL | COCCCCCOC1CCN(c2ccc(-c3nn4cc(-c5ccc(C(=O)N[C@H]6C[C@@H](O)CNC(=O)[C@@H]7[C@@H](O)[C@@H](C)CN7C(=O)[C@H]([C@H](O)CCNC(CO)CO)NC(=O)[C@H]([C@H](O)Cc7ccc(O)c(OS(=O)(=O)O)c7)NC(=O)[C@@H]7C[C@@H](O)CN7C(=O)[C@H]([C@@H](C)O)NC6=O)cc5)nc4s3)cc2)CC1 [Example 4] (X3-[Orn(4R-OH)]T[Hyp][hTyr(3R-OH,3'-OSO3H)][Orn(3R-OH,Nδ-CH(CH2OH)2)][Pro(3S-OH,4S-Me)]; lactam 1-C) |
| <0.3 µg/mL | COCCCCCCOc1ccc(-c2cc(-c3ccc(C(=O)N[C@H]4C[C@@H](O)CNC(=O)[C@@H]5[C@@H](O)[C@@H](C)CN5C(=O)[C@H]([C@H](O)CCNC(CO)CO)NC(=O)[C@H]([C@H](O)Cc5ccc(O)c(OS(=O)(=O)O)c5)NC(=O)[C@@H]5C[C@@H](O)CN5C(=O)[C@H]([C@@H](C)O)NC4=O)cc3)no2)cc1 [Example 25] (X1-[Orn(4R-OH)]T[Hyp][hTyr(3R-OH,3'-OSO3H)][Orn(3R-OH,Nδ-CH(CH2OH)2)][Pro(3S-OH,4S-Me)]; lactam 1-C) |
